Key:
hTLR7 = target: T1, hTLR7 (Homo sapiens, UniProt Q9NYK1); assay: Human TLR7 Reporter Assay; format: cell-based; settings: HEK-Blue hTLR7 cells, 16 hours, normalized to CL097 (6 μM) and DMSO
T1 construct: host or cells: HEK-Blue hTLR7 cells (HEK293-derived, own knowledge)
T1 sequence (Q9NYK1 27-1049): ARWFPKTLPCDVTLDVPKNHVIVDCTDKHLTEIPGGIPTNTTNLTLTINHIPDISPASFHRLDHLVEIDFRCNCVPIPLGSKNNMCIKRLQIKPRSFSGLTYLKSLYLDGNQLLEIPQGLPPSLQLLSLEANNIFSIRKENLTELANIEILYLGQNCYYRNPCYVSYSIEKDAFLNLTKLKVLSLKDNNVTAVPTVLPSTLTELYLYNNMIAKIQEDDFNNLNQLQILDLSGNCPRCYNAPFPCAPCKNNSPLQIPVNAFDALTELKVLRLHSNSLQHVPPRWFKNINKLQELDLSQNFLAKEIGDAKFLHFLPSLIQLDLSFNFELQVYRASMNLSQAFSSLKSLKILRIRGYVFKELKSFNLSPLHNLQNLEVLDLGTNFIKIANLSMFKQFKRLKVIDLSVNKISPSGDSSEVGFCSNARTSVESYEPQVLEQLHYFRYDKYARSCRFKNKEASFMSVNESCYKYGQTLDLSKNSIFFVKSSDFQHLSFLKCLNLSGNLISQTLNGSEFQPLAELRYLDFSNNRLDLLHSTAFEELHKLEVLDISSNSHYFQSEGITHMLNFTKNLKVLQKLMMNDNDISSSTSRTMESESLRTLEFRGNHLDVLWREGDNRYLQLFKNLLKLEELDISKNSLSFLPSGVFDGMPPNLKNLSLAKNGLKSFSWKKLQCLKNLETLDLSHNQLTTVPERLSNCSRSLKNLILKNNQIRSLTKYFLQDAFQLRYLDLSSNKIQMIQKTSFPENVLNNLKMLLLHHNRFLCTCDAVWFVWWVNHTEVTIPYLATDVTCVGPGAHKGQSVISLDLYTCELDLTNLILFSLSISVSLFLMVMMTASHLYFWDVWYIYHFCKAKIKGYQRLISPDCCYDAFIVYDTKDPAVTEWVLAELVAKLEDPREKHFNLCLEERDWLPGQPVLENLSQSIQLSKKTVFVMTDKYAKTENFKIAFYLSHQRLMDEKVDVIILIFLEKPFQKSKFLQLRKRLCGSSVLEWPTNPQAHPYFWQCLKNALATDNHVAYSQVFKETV
Description: (§1) HEK-Blue™ hTLR7 cells (Invivogen, San Diego, Calif.) were maintained at 37° C./5% CO2/90% relative humidity in Dulbecco's Modified Eagle's Medium with 10% fetal bovine serum, 100 units/mL penicillin, 100 μg/mL streptomycin, 100 μg/mL normocin, 10 μg/mL blasticidin, and 100 μg/mL zeocin. HEK-Blue™ hTLR7 cells were maintained at 10-90% confluence and used before passage 20. For this assay, test compounds were dissolved in DMSO, and 10-point serial 3-fold dilution series in DMSO were prepared in Echo Qualified 384-well Polypropylene Microplates (Labcyte, San Jose, Calif.). Assay plates (384-well flat, clear bottom, black polystyrene TC-treated microtiter plates; Corning, Corning, N.Y.) were prepared by dispensing 150 nL of test compounds, high control (CL097; Invivogen, San Diego, Calif.), and low control (DMSO) by ECHO acoustic dispenser (Labcyte, San Jose Calif.) followed by addition of 5 μL of HEK-Blue™ Detection assay media (Invivogen, San Diego, Calif.). HEK-Blue™ hTLR7 cells in HEK-Blue™ Detection assay media (20,000 cells per well in 45 μL of media) were added to the assay plate and incubated for 16 hours at 37° C./5% CO2/90% relative humidity. For detection, assay plates were removed from the incubator, allowed to cool to ambient temperature, centrifuged at 200×g for 1 minutes, and read with an EnSpire Multimode Plate Reader (Perkin Elmer, Waltham, Mass.) for absorbance at 620 nm. Test compound effects were normalized to the window defined by the controls, CL097 (6 μM), and DMSO. Calculated % effects were fit using a 4-parameter algorithm, and EC50 was reported.

hTLR8 = target: T2, hTLR8 (Homo sapiens, UniProt Q9NR97); assay: Human TLR8 Reporter Assay; format: cell-based; settings: HEK-Blue hTLR8 cells, 16 hours, normalized to tl8-506 (1 μM) and DMSO
T2 construct: host or cells: HEK-Blue hTLR8 cells (HEK293-derived, own knowledge)
T2 sequence (Q9NR97 27-1041): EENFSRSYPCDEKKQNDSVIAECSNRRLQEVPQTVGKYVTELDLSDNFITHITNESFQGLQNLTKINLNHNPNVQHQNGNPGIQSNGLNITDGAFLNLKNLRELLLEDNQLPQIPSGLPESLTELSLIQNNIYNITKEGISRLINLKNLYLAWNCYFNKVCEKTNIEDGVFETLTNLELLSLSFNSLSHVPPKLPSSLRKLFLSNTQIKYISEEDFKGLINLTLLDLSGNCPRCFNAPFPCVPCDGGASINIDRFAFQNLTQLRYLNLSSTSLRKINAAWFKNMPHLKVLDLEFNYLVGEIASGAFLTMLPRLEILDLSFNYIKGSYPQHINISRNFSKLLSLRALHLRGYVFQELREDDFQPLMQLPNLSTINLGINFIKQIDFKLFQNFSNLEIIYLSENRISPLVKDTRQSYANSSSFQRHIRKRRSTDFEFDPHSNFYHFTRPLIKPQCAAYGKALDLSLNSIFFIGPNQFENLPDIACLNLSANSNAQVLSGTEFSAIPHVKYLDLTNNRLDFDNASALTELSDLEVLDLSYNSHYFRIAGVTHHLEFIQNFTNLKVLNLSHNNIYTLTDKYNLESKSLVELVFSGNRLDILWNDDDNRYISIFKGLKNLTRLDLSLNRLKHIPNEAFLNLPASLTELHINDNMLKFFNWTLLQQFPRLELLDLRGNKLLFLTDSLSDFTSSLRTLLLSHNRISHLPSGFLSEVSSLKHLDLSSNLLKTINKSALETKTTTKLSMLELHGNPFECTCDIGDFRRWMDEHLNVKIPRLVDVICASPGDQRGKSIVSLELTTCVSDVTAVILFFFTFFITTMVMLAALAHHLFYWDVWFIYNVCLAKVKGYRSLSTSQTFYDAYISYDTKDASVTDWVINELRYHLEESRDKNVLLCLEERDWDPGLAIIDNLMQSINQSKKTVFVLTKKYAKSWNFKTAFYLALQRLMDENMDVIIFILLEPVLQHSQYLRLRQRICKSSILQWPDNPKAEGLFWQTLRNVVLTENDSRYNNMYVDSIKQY
Description: as §1, with “hTLR8” for “hTLR7”, “(tl8-506;” for “(CL097;”, “tl8-506 (1” for “CL097 (6”

Row | SMILES | EC50 (hTLR7) [nM] | EC50 (hTLR8) [nM]
1 | COc1cccc(OC)c1Cn1cc2nc(N)nc(NCCC(C)O)c2n1 (stereo not drawn) [Compound 51] | 4730 | > 29900
2 | CCCCNc1nc(N)nc2cn(Cc3c(OC)cc(NCCN)cc3OC)nc12 [Compound 114] | 529 | 4490
3 | CCCCNc1nc(N)nc2cn(Cc3c(OC)cc(CN4CC(N)C4)cc3OC)nc12 [Compound 192] | 653 | 1160
4 | C=CCN(C)Cc1cnc(Cn2cc3nc(N)nc(NCCCC)c3n2)c(OC)c1 [Compound 157] | 55.9 | 370
5 | CCC[C@@H](CO)Nc1nc(N)nc2cn(Cc3c(OC)cc(C(C)N)cc3OC)nc12 (stereo partly drawn) [Compound 222] | 6280 | 1070
6 | C=CCN(C)Cc1cc(OC)c(Cn2cc3nc(N)nc(N[C@@H](C)CCC)c3n2)c(OC)c1 [Compound 183] | 30.8 | 380
7 | CCCCNc1nc(N)nc2cn(Cc3ccc(C(C)N(C)CCC)cc3OC)nc12 (stereo not drawn) [Compound 233] | 32.3 | 456
8 | CCCCNc1nc(N)nc2cn(Cc3ccc(C(N)CN)cc3OC)nc12 (stereo not drawn) [Compound 227] | 10700 | 10800
9 | CCCCNc1nc(N)nc2cn(Cc3ccc(NCCCN)cn3)nc12 [Compound 144] | 170 | 3810
10 | COc1cccc(OC)c1Cn1cc2nc(N)nc(NCC(C)O)c2n1 (stereo not drawn) [Compound 48] | 7720 | > 29900
11 | CNc1nc(N)nc2cn(Cc3c(OC)cccc3OC)nc12 [Compound 43] | 1370 | > 9980
12 | CCCCNc1nc(N)nc2cn(Cc3ncccc3OC)nc12 [Compound 8] | 50.9 | 546
13 | CCC[C@H](C)Nc1nc(N)nc2cn(Cc3c(OC)cc(Br)cc3OC)nc12 [Compound 184] | 103 | 728
14 | CCCCNc1nc(N)nc2cn(Cc3ccccc3C)nc12 [Compound 3] | 1220 | > 29900
15 | CCCCNc1nc(N)nc2cn(Cc3nccnc3OC)nc12 [Compound 111] | 81.8 | 597
16 | CCCCNc1nc(N)nc2cn(Cc3ccc(C(C)NCCC)cc3OC)nc12 (stereo not drawn) [Compound 216] | 106 | 119
17 | C=CCN(C)Cc1nc(Cn2cc3nc(N)nc(NCCCC)c3n2)c(C)o1 [Compound 169] | 1850 | 4060

Row | SMILES | EC50 (hTLR7) [nM] | EC50 (hTLR8) [nM]
18 | CCC[C@H](C)Nc1nc(N)nc2cn(Cc3c(OC)cc(CNC)cc3OC)nc12 [Compound 190] | 187 | 2210
19 | CCCCNc1nc(N)nc2cn(Cc3ccccc3Cl)nc12 [Compound 4] | 578 | 6540
20 | CCC[C@@H](CO)Nc1nc(N)nc2cn(Cc3ccc(CN4CC(CN)C4)cc3OC)nc12 [Compound 149] | 5180 | 1180
21 | CCCCNc1nc(N)nc2cn(Cc3ncc(CNC)cc3OC)nc12 [Compound 163] | 476 | 809
22 | CCC[C@H](CO)Nc1nc(N)nc2cn(Cc3ccccc3OC)nc12 [Compound 29] | 2770 | 28200
23 | CCCCC(CCC)Nc1nc(N)nc2cn(Cc3ccccc3OC)nc12 (stereo not drawn) [Compound 18] | 315 | > 29900
24 | CCCCNc1nc(N)nc2cn(Cc3c(OC)cc(CNC(=O)CCN4C(=O)C=CC4=O)cc3OC)nc12 [Compound 96] | 1970 | 7840
25 | CCCCNc1nc(N)nc2cn(Cc3c(OC)cc(C(C)NC)cc3OC)nc12 (stereo not drawn) [Compound 211] | 365 | 198
26 | CCCCNc1nc(N)nc2cn(Cc3cncnc3OC)nc12 [Compound 106] | 311 | 1700
27 | CCCC(Nc1nc(N)nc2cn(Cc3c(OC)cccc3OC)nc12)C(F)F (stereo not drawn) [Compound 135] | 343 | > 9980
28 | CCCCNc1nc(N)nc2cn(Cc3c(OC)cccc3OCCCCO)nc12 [Compound 208] | 299 | 906
29 | CCC[C@@H](CO)Nc1nc(N)nc2cn(Cc3ncccc3OC)nc12 [Compound 133] | 114 | 161
30 | CCCCNc1nc(N)nc2cn(Cc3c(OC)cc(CNC)cc3OC)nc12 [Compound 109] | 91.9 | 99.8
31 | CCCCNc1nc(N)nc2cn(Cc3ncc(CN4CCNCC4)cc3OC)nc12 [Compound 94] | 2040 | 4960
32 | CCCCNc1nc(N)nc2cn(Cc3ccc(CN)cc3OC)nc12 [Compound 137] | 439 | 692
33 | CCCCNc1nc(N)nc2cn(Cc3ccc(C(N)CCN)cc3OC)nc12 (stereo not drawn) [Compound 229] | 2270 | 11400
